Values of other authors in US8053002B2, “Medicinal herbal composition for treating infection” (priority 2005, dated 2011).

How the values were obtained:
[1] = test system: influenza virus
[2] = test system: herpes simplex virus (HSV-2)
[3] = target: HIV-1 reverse transcriptase (Human immunodeficiency virus type 1 group M subtype B, UniProt P03366)
[4] = test system: HIV-1

O=c1cc(-c2ccc(O)cc2)oc2cc(O)cc(O)c12 [5,7,4-truhydroxyflavone]
anti-influenza virus activity [1]: anti-influenza virus activity

O=C(O[C@@H]1O[C@@H]2COC(=O)c3cc(O)c(O)c(O)c3-c3c(cc(O)c(O)c3O)C(=O)O[C@H]2[C@H](OC(=O)c2cc(O)c(O)c(O)c2)[C@H]1OC(=O)c1cc(O)c(O)c(O)c1)c1cc(O)c(O)c(O)c1 [Eugeniin]
anti-herpes simplex virus (HSV-2) activity in vitro [2]: exhibited anti-herpes simplex virus (HSV-2) activity

COC(=O)c1cc(O)c(O)c(O)c1 [methyl gallate]
anti-herpes simplex virus (HSV-2) activity in vitro [2]: exhibited anti-herpes simplex virus (HSV-2) activity

COCc1cc2cc(OC)c(OC)cc2c(-c2ccc3c(c2)OCO3)c1C=O [phyllamycin B]
effect on HIV-1 reverse transcriptase activity [3]: inhibitory effect

COc1cc2cc3c(c(-c4ccc5c(c4)OCO5)c2cc1OC)COC3=O [retrojusticiden B]
effect on HIV-1 reverse transcriptase activity [3]: inhibitory effect

Prunellin
minimum inhibition concentration against HIV-1 in vitro [4]: 2.2 µg/mL
